The text below walks through data of patent US20180030080A1, “Phosphoramidate nucleoside prodrug for treating viral diseases and cancer, processes for their preparation and their use” (ASAVI, LLC, priority 2016, published 2018).

Read-outs that look alike come from different tables or passages of the source.

One series relates to HBV wild-type. As to conditions: cited from earlier work.
Series [1] has as its system HBV lamivudine-entecavir resistant clone (L180M+M204V+S202G). Conditions: resistant mutant (L180M+M204V+S202G); cited from earlier work.
In the next series the test system is HCV replicon gT1b. Kind of series: HCV replicon assay, genotype gT1b. It counts as cell-based. As to conditions: Hepatitis C virus. On the procedure: (§1) Anti-HCV activity (EC50) and cytotoxicity (CC50) of prodrugs of general formula 1. The HCV replicon assay was used to determine the antiviral activity of chemotherapeutic agents of general formula 1 (test compounds). Sovaldi (PSI-7977) was used as the reference drug. The test cell line used in the HCV Replicon Assay was the human hepatoma cell line Huh7 incorporating the HCV replicons synthesized by an outside vendor. 96-well plates were seeded with cells at a density of 7.5×10^3 cells per well in 50 μl of assay media. The compound stock solution was made up freshly in an assay medium (DMEM 1×, Cellgro; cat. #10-013-CV) as a 2× stock. A total of 11 serial 3-fold dilutions of test compounds were prepared from the 2× stock in the assay media ranging from 20 nM-0.2 pM final concentrations. At least 4 hours after seeding the cells, compound treatment was initiated by adding 50 μl of compound dilution to the plates. […] The final DMSO concentration was 0.5%. Cells and inhibitors were incubated for 3 days at 37° C./5% CO2. The media was removed from the plates by gentle tapping. The cells were fixed with 100 μl 1:1 acetone:methanol for 1 minute, washed three times with PBS buffer, and then blocked with 150 μl/well 10% Fetal Bovine Serum (FBS) in PBS for 1 hour at room temperature. The cells were then washed three times with PBS buffer and incubated with 100 μl/well anti-hepatitis C core mAb (Affinity BioReagents; cat. # MA1-080, 1 mg/ml stock diluted 1:4,000 in 10% FBS-PBS) for 2 hours at 37° C. Then, the cells were washed three times with PBS and incubated with 100 μl/well HRP-Goat Anti-Mouse antibody (diluted 1:3.500 in 10% FBS-PBS) for 1 hour at 37° C. The cells were then washed three times with PBS and developed with an OPD solution, 100 μl/well (1 OPD tablet+12 ml citrate/phosphate buffer+5 μl 30% H2O2 per plate), for 30 minutes in the dark at room temperature. The reaction was stopped with 2N H2SO4 (100 μl/well), and the absorbance was measured at A490 X on a Victor^3 V 1420 multilabel counter (Perkin Elmer). The EC50 values were calculated for test compounds from the resulting best-fit equations determined by Xlfit software (Table 1).

The test system of a further series is HCV replicon gT1a. Nature of the series: HCV replicon assay, genotype gT1a. In kind it is cell-based. Conditions: Hepatitis C virus, mean. On the procedure:
as §1, with “The cells were then washed three times with PBS and developed with an OPD solution, 100 μl/well (1 OPD tablet+12 ml citrate/phosphate buffer+5 μl 30% H2O2 per plate), for 30 minutes in the dark at room temperature.” left out

The next series relates to HCV replicon gT2a. Nature of the series: HCV replicon assay, genotype gT2a. In kind it is cell-based. Conditions: Hepatitis C virus, mean. The procedure: (§2) Anti-HCV activity (EC50) and cytotoxicity (CC50) of prodrugs of general formula 1. The HCV replicon assay was used to determine the antiviral activity of chemotherapeutic agents of general formula 1 (test compounds). Sovaldi (PSI-7977) was used as the reference drug. The test cell line used in the HCV Replicon Assay was the human hepatoma cell line Huh7 incorporating the HCV replicons synthesized by an outside vendor. 96-well plates were seeded with cells at a density of 7.5×10^3 cells per well in 50 μl of assay media. The compound stock solution was made up freshly in an assay medium (DMEM 1×, Cellgro; cat. #10-013-CV) as a 2× stock. A total of 11 serial 3-fold dilutions of test compounds were prepared from the 2× stock in the assay media ranging from 20 nM-0.2 pM final concentrations. At least 4 hours after seeding the cells, compound treatment was initiated by adding 50 μl of compound dilution to the plates. The final concentrations of compound therefore ranged from 10 nM to 0.1 pM when diluted 1:1 in culture media. The final DMSO concentration was 0.5%. Cells and inhibitors were incubated for 3 days at 37° C./5% CO2. The media was removed from the plates by gentle tapping. The cells were fixed with 100 μl 1:1 acetone:methanol for 1 minute, washed three times with PBS buffer, and then blocked with 150 μl/well 10% Fetal Bovine Serum (FBS) in PBS for 1 hour at room temperature. The cells were then washed three times with PBS buffer and incubated with 100 μl/well anti-hepatitis C core mAb (Affinity BioReagents; cat. # MA1-080, 1 mg/ml stock diluted 1:4,000 in 10% FBS-PBS) for 2 hours at 37° C. Then, the cells were washed three times with PBS and incubated with 100 μl/well HRP-Goat Anti-Mouse antibody (diluted 1:3.500 in 10% FBS-PBS) for 1 hour at 37° C. […] The reaction was stopped with 2N H2SO4 (100 μl/well), and the absorbance was measured at A490 X on a Victor^3 V 1420 multilabel counter (Perkin Elmer). The EC50 values were calculated for test compounds from the resulting best-fit equations determined by Xlfit software (Table 1).

For another series, the system named is HCV replicon gT3a. Nature of the series: HCV replicon assay, genotype gT3a. It counts as cell-based. As to conditions: Hepatitis C virus, mean. On the procedure:
as §2, with “The final concentrations of compound therefore ranged from 10 nM to 0.1 pM when diluted 1:1 in culture media.” left out

A further series deals with HCV replicon gT4a. Kind of series: HCV replicon assay, genotype gT4a. It counts as cell-based. As to conditions: Hepatitis C virus, mean. The procedure:
as §2, with “The final concentrations of compound therefore ranged from 10 nM to 0.1 pM when diluted 1:1 in culture media.” left out

For the next series, the system named is HCV replicon gT5a. Kind of series: HCV replicon assay, genotype gT5a. It counts as cell-based. As to conditions: Hepatitis C virus, mean. On the procedure: as §2, with “The final concentrations of compound therefore ranged from 10 nM to 0.1 pM when diluted 1:1 in culture media.” left out
In another series the test system is wild-type HIV-1. Conditions: cited from earlier work.
For series [2] the following is noted: 28-day toxicity studies in multiple species; cited from earlier work.
The next series concerns HCV replicon. Conditions: cited from earlier work.
The conditions of series [3]: in the clinic; cited from earlier work.
The subject of series [4] is xenograft models of human pancreatic cancer. Conditions: in vivo; cited from earlier work.
The subject of a further series is Huh7. Kind of series: Cytotoxicity in Huh7 cells (ATPLite). It counts as cell-based, human. As to conditions: at a concentration of 100 μM. On the procedure: The cytotoxicity of the test compounds was studied in parallel using the same cell line, Huh7. Cell viability was determined using the ATPLite Kit (Perkin-Elmer, Boston, USA), according to manufacturer's instructions. 96-well black/transparent bottom plates were seeded with cells at a density of 7.5×10^3 cells per well in 50 μl medium. After 18 hours, compound treatment was initiated by adding 50 μl of compound dilution into the plates. Each compound dilution was tested in triplicates. The cells and inhibitors were then incubated for 96 hours at 37° C./5% CO2. The plates were washed twice with PBS (0.2 ml/well), and then lysed by adding lysis buffer, 0.05 ml/well (all reagents were included with the ATPLite Kit). After rocking for 5 min on a rocking platform, substrate buffer was added (0.05 ml/well). After additional 5-min incubation, the plates were kept in dark for 10 min, and the luminescence was read using TopCount NXT (Packard, Perkin Elmer). CC50 values for all test compounds were determined using XLfit 4.1 software.

Series [5] relates to HIV. Conditions: in PBMCs, relative to TFV; cited from earlier work.
In series [6] the test system is HIV. Conditions: most potent and least cytotoxic analog; cited from earlier work.
Setting [7] is: GT1B, read-out: IC50 HCV gT1b 10% FBS (mean).
The mark [8] stands for this setting: gT1b, 40% NHS, mean, read-out: IC50 HCV gT1b 40% NHS (mean).

As to “2′-Fluoro-6′-methylene-carbocyclic adenosine phosphoramidate [5′-phosphoramidate of FMCA]”, the “more potent than FMCA” value in the series with HBV wild-type (against both the wild-type and resistant mutant) is listed as 10 fold. Further, the EC50 in [1] is 54 nM.

As to “2′-fluoro-6′-methylene-carbocyclic adenosine [FMCA]”, the EC50 in the series on HBV wild-type (HBV wild-type) is 550 nM.

As for `CC(C)OC(=O)[C@H](C)OC(=O)[C@H](C)NP(=O)(OC[C@H]1O[C@@H](n2ccc(=O)[nH]c2=O)[C@](C)(F)[C@@H]1O)Oc1ccccc1` (stereo partly drawn) [1.2(2), (S)-1-isopropyloxycarbonyl-ethyl (S)-2-{[(2R,3R,4R,5R)-5-(2,4-dioxo-3,4-dihydro-2H-pyrimidin-1-yl)-4-fluoro-3-hydroxy-4-methyl-tetrahydro-furan-2-ylmethoxy]-phenoxy-phosphorylamino}-propanoate], the IC50 was determined as 18 nM in the series with HCV replicon gT1b (setting [7]); 34 nM in the series on HCV replicon gT1b (setting [8]); 57 nM with HCV replicon gT1a; 24 nM in the series with HCV replicon gT2a; 69 nM in the series with HCV replicon gT3a; 80 nM in the series on HCV replicon gT4a. In the series on HCV replicon gT5a, this molecule returned an IC50 of 185 nM.

Turning to `C=CCOC(=O)[C@H](C)NP(=O)(OC[C@H]1O[C@@H](n2ccc(=O)[nH]c2=O)[C@](C)(F)[C@@H]1O)Oc1ccccc1` (stereo partly drawn) [1.2(9), allyl (S)-2-{[(2R,3R,4R,5R)-5-(2,4-dioxo-3,4-dihydro-2H-pyrimidin-1-yl)-4-fluoro-3-hydroxy-4-methyl-tetrahydro-furan-2-ylmethoxy]-phenoxy-phosphorylamino}-propanoate], the IC50 was found to be 29 nM in the series with HCV replicon gT1b (setting [7]); 34 nM with HCV replicon gT1b (setting [8]); 54 nM with HCV replicon gT1a; 23 nM in the series with HCV replicon gT2a; 51 nM in the series on HCV replicon gT3a; 100 nM with HCV replicon gT4a. In the series on HCV replicon gT5a, this molecule yielded an IC50 of 146 nM.

For `CCOC(=O)[C@H](C)N[P@](=O)(OC[C@@H]1OC[C@H](n2cc(C)c(=O)[nH]c2=O)O1)Oc1ccc(Br)cc1` [DOT-phosphoramidate, D-dioxolane-thymine 5′-(4-bromophenylethyloxy-L-alanyl-phosphate)], the “more potency relative to DOT” value in the series with wild-type HIV-1 is recorded as 75 fold.

With `CC(C)OC(=O)[C@H](C)N[P@](=O)(CO[C@@H]1C=C(F)C(n2cnc3c(N)ncnc32)O1)Oc1ccccc1` (some centres unmarked) [GS-9131], the renal findings entry in series [2] is “no significant renal findings”.

For `COc1nc(N)nc2c1ncn2[C@@H]1O[C@H](COP(=O)(N[C@@H](C)C(=O)OCC(C)(C)C)Oc2cccc3ccccc23)[C@@H](O)[C@@]1(C)O` (some centres unmarked) [INX-08189], the EC50 in the series with HCV replicon was 10 nM. In addition, the cardiovascular toxicity entry in [3] is “severe cardiovascular toxicity”.

For `C[C@H](NP(=O)(OC[C@H]1O[C@@H](n2ccc(N)nc2=O)C(F)(F)[C@@H]1O)Oc1ccccc1)C(=O)OCc1ccccc1` (some centres unmarked) [NUC-1031, Gemcitabin-5′-phosphoramidate], the tumor volume entry in [4] was “significantly reduced tumor volume”.

Turning to `CC(C)OC(=O)[C@H](C)NP(=O)(OC[C@H]1O[C@@H](n2ccc(=O)[nH]c2=O)[C@](C)(F)[C@@H]1O)Oc1ccccc1` (some centres unmarked) [PSI-7851, reference compound], the IC50 stood at 61 nM in the series with HCV replicon gT1b (setting [7]); 80 nM in the series with HCV replicon gT1b (setting [8]); 103 nM in the series with HCV replicon gT1a; 39 nM in the series with HCV replicon gT2a; 152 nM in the series on HCV replicon gT3a; 350 nM in the series with HCV replicon gT4a. The molecule also yielded an IC50 in the series on HCV replicon gT5a of 395 nM. The molecule also registered a Cell death in the series with Huh7 of 31%.

`CC(C)OC(=O)[C@H](C)N[P@](=O)(CO[C@H](C)Cn1cnc2c(N)ncnc21)Oc1ccccc1` [TAF, (S)-Isopropyl 2-(((S)-((((R)-1-(6-amino-9H-purin-9-yl)propan-2-yl)oxy)methyl)(phenoxy)-phosphoryl)amino)propanoate]: in the series on HIV [5], the “more potent than TFV” value is 400 fold.

In the case of `CCOC(=O)[C@H](C)N[P@](=O)(OC[C@@H]1OC[C@H](n2cnc3c(NC4CC4)ncnc32)O1)Oc1ccccc1` [dioxolane-A mono-phosphoramidate], the EC50 in the series on HIV [6] is 86 nM.
